Measured values from US20230018014A1, “NOVEL COMPOUNDS AND FORMULATIONS” (PRO-AL MEDICO-TECHNOLOGIES, INC., priority 2019, published 2023).

How the values were obtained:
[1] = test system: neonatal cardiomyocytes; experiment: neonatal cardiomyocyte contraction under normoxic and hypoxic condition; assay type: cell-based
[2] = test system: swine; experiment: porcine cardiac arrest model; assay type: in vivo
Description: In this study, swine were subjected to 7 minutes of cardiac arrest followed by manual CPR for up to 20 minutes with defibrillation every 2 minutes as necessary. […] In animals that achieved ROSC (unassisted systolic BP>80 mmHg for 1 min), further pharmacologic support was limited to 1 additional dose of the selected drug for hypotension. Hemodynamics, left ventricular (LV) function, plasma cardiac troponin I (cTnl) and other parameters were assessed at baseline and for up to 4 hours post-ROSC.

[3] = test system: Neuron-Specific Enolase (NSE); experiment: Neuron-Specific Enolase ELISA in pig blood plasma after cardiac arrest and resuscitation; assay type: in vivo; conditions: 2 hours post-ROSC
Description: The blood samples were collected from pigs subjected to cardiac arrest and resuscitation as described in Example 7. […] At 2 hours post-ROSC, blood samples were collected from a peripheral vein into tubes with EDTA and centrifuged for 15 minutes. The plasma samples were then used for the NSE assay based on the manufacturer's instructions.

[4] = test system: neonatal cardiomyocytes; experiment: cardiac Troponin T levels by flow cytometry in neonatal cardiomyocytes under hypoxia; assay type: cell-based; conditions: 4% oxygen, 5% CO2, 37° C., 24 hours
Description: (§1) This study aimed to investigate the positive protective role of T3, T3 nanoparticles and nanoparticles of T3 and phosphocreatine (PCR) in hypoxia-mediated cardiac cell insults, as well as its influences on vascularization and neuronal protection, under hypoxic condition. […] Mitochondrial function and sarcomere integrity were studied using an ATP-bioluminescence assay, and cardiac Troponin T levels using flow cytometry, respectively.
(§2) The cells were cultured in a hypoxia incubator with 4% oxygen, 5% CO2 at 37° C. for 24 hours. Following incubation, the cells were collected and compared with those of normal condition. Mitochondrial function and sarcomere integrity were studied using an ATP-bioluminescence assay, and cardiac Troponin T levels using flow cytometry after adding troponin T antibody conjugated with FITC.

[5] = test system: T3-induced cells (HS5) and PC12 neuronal cells; experiment: ATP-bioluminescence in T3-induced cells (HS5) and PC12 neuronal cells under hypoxia (Example 6); assay type: cell-based; conditions: hypoxia 24 hours; Epinephrine 0.5 μM
Description: (§3) The cells were then cultured under hypoxia for 24 hours. Results using ATP-bioluminescence and LDH release assays.

[6] = test system: T3-induced cells (HS5) and PC12 neuronal cells; experiment: LDH release assay in T3-induced cells (HS5) and PC12 neuronal cells under hypoxia (Example 6); assay type: cell-based; conditions: hypoxia 24 hours; Epinephrine 0.5 μM
Description: as §3

[7] = test system: neonatal cardiomyocytes; experiment: ATP-bioluminescence assay in isolated neonatal cardiomyocytes under hypoxia; assay type: cell-based; conditions: 4% oxygen, 5% CO2, 37° C., 24 hours
Description: as §1, §2

[8] = test system: chick embryo chorioallantoic membrane (CAM); experiment: chick embryo chorioallantoic membrane (CAM) angiogenesis model; assay type: in vivo
Description: as §1

[9] = within the first 5 minutes post-ROSC

Compound: CNC[C@H](O)c1ccc(O)c(O)c1 [Epinephrine]
- Contraction/min ([1]; hypoxia): 28 min⁻¹
- Rhythm ([1]; hypoxia): Irregular
- Contraction/min ([1]; normoxia): 186 min⁻¹
- Rhythm ([1]; normoxia): Regular
- higher concentration of cTnl ([2]; post-ROSC, versus the nanoparticle groups): 2 fold
- rate of ROSC (in words) ([2]; swine, 7 minutes of cardiac arrest, intravenous, nanoparticles 0.125 mg/kg, Epinephrine 0.015 mg/kg): higher
- survival duration ([2]; swine, post-ROSC, up to 4 hours, nanoparticles 0.125 mg/kg, Epinephrine 0.015 mg/kg): 116 ± 26 min
- coronary sinus PCO2 compared to vehicle (in words) [2, 9]: not
- coronary sinus pH compared to vehicle (in words) [2, 9]: not
- increase of NSE over baseline [3]: 64%
- Troponin T levels (in words) [4]: close to untreated hypoxic cardiomyocytes
- ATP levels (in words) [5]: increased slightly
- LDH levels (in words) [6]: showed an increase
- cardiac ATP levels (in words) [7]: close to untreated hypoxic cardiomyocytes

Compound: N[C@@H](Cc1cc(I)c(Oc2ccc(O)c(I)c2)c(I)c1)C(=O)O [T3, triiodothyronine]
- contraction levels in cardiomyocytes (in words) ([1]; hypoxia): close to those of the cells under normal conditions
- enhanced angiogenesis compared to the control group [8]: ~3 fold
- Branch points (SEM) ([8]; 10 μg): 158.4 ± 5.5
- improvement in observed branch points in comparison with bFGF ([8]; T3 10 μg, Nano-T3 1 μg): 37%

Compound: bFGF: basic fibroblast growth factor, positive comparator in the CAM model
- Branch points (SEM) ([8]; bFGF, dose not given): 115.4 ± 3.2
